Data published in patent US20020103127A1, “Inhibitors of proteasomal activity for stimulating hair growth” (priority 1998, published 2002).
Where a SMILES comes first, the peptide text is derived from it. [ ]: non-standard residue; d: D form. The star is where a group is joined. Nva = CCC[C@H](N)C(=O)O; Cbz = O=C(OCc1ccccc1)*; OtBu = CC(C)(C)O*

Tests used:
[1] = test system: hair follicles; assay: Modified in vivo calvarial assay: number of hair follicles after injection over the calvaria; design: species or system Swiss ICR mice; conditions: for number of hair follicles: administered in the same way as PSI (injection over the calvaria)
Description: Male ICR Swiss white mice, aged 4-6 weeks and weighing 13-26 gm, are employed, using 4-5 mice per group. The calvarial bone growth assay is performed as described in PCT application WO95/242 11, incorporated by reference. Briefly, the test compound or appropriate control vehicle is injected into the subcutaneous tissue over the right calvaria of normal mice. Typically, the control vehicle is the vehicle in which the compound was solubilized, and is PBS containing 5% DMSO or is PBS containing Tween (2 μl/10 ml). The animals are sacrificed on day 14 and bone growth measured by histomorphometry. Bone samples for quantitation are cleaned from adjacent tissues and fixed in 10% buffered formalin for 24-48 hours, decalcified in 14% EDTA for 1-3 weeks, processed through graded alcohols; and embedded in paraffin wax. Three to five μm sections of the calvaria are prepared, and representative sections are selected for histomorphometric assessment of the effects on bone formation and bone resorption. Sections are measured by using a camera lucida attachment to trace directly the microscopic image onto a digitizing plate. Bone changes are measured on sections cut 200 μm apart, over 4 adjacent 1×1 mm fields on both the injected and noninjected sides of the calvaria. New bone is identified by its characteristic woven structure, and osteoclasts and osteoblasts are identified by their distinctive morphology. Histomorphometry software (OsteoMeasure, Osteometrix, Inc., Atlanta) is used to process digitizer input to determine cell counts and measure areas or perimeters.
(§1) The assay described above to assess the effect of compounds on calvarial bone growth can also be used to assess the ability of compounds to stimulate hair growth. The test compound or appropriate control vehicle is applied to the upper and lower back of male ICR Swiss white mice either topically or by subcutaneous injection. The vehicle is selected as appropriate for the compound to be tested and for the route of administration. Optionally, the hair in the test area may be removed prior to administration. After a suitable interval, typically 7 days, the mice are anesthetized and a biopsy of the dorsal treatment area is taken using a 6 mm dermal punch. The specimens are fixed in 10% buffered formalin and imbedded in paraffin wax, and sectioned and stained to observe hair follicles. In addition, photography can be used to observe and record hair growth; typically such growth is observed after 14-18 days. After a suitable interval, typically 21 days, the animals may be euthanized and the hair analyzed for fiber analysis and the tissue from the treatment area analyzed for quantitation of hair follicles.
The in vivo bone calvarial growth assay of Example 3 was modified to observe the number of hair follicles in treated mice. […]

[2] = compared with proteasome inhibitors such as MG-132
[3] = test system: calvarial bone; assay: in vitro calvarial assay; assay type: cell-based
[4] = test system: hair follicles; assay: Stimulation of hair growth: subcutaneous injection into scalp and dorsal region after wax hair stripping; assay type: in vivo, Male Swiss ICR mice; conditions: 1 mg/kg/day s.c. three times a day for five days
Excerpt: as §1
Male Swiss ICR mice were first treated to remove hair from the scalp and dorsal regions as follows. Paraffin wax was liquefied by heating to 55° C. and the liquefied wax then applied by brush to the scalp and/or back (under anesthesia). The wax was allowed to solidify and then removed. The day following hair stripping, PSI (1 mg/kg/day) was injected subcutaneously three times a day for five days into the scalp and dorsal region.
The mice were sacrificed on day 21 and histology was performed on the dermis of the scalp and of the dorsal region. […] Upon closer examination, it was observed that mice that had received only vehicle had quiescent hair follicles.

[5] = test system: hair follicles; assay: Topical dose response of PSI (dose requirements); assay type: in vivo, mice
Description: In order to determine the minimal effective dosage of PSI, when used topically, a dose response curve for PSI was prepared. All experiments were preformed according to current good laboratory practice regulations (21CFR58). The mice were divided into 7 groups, 10 mice each, wherein one group was control treated only with vehicle and groups 1-6 with a series of increasing concentrations of PSI in a vehicle comprising 50% propylene glycol, 30% ethanol, 20% deionized water. The concentrations were 0.006%, 0.012%, 0.025%, 0.05%, 0.11% and 0.5%.
The mice were anesthetized (50 μl Mouse Cocktail containing 3 ml ketamine, 2 ml small animal rompum, 5 ml NaCl), identified by ear punch code, weighed and the hair on the dorsal side removed by waxing as described in Example 6. After waxing, the animals were photographed. On the following day (day 1), 100 μl of PSI at the above concentrations in vehicle was brushed onto the area of removed hair. […]
On Day 7 mice were anesthetized and a biopsy of the dorsal treatment area taken using a 6 mm dermal punch; the specimens were fixed in 10% buffered formalin and embedded in paraffin wax. Sections were cut using a standard microtome.
Mice were monitored daily for signs of hair growth, and any hair growth was recorded by photography. On day 21 animals were euthanized (75 mg/kg body weight phenobarbital, IP injection), 2 cm hair samples were taken for optical based fiber analysis, and the remaining dorsal treatment area was fixed in 10% buffered formalin for further histological analysis. Analysis included quantification of hair thickness and quantification of mature hair follicles. Results were expressed as the mean =+/− the standard error of the mean. Data were analyzed by repeated measures of analysis of variance followed by the Tukey-Kramer post test P values of <0.05 were considered significant.

[6] = test system: hair follicles; assay: Topical administration of PSI solution, hair growth; assay type: in vivo, mice
Description: PSI was prepared as a topical formulation, where the vehicle was 50% propylene glycol, 30% ethanol, 20% deionized water, at 0.1% concentration of PSI. The solution was applied 3 times a day for 5 days. The mice in a treated group were observed as compared to controls similarly treated with vehicle alone.
When the protocol above was repeated using a 0.5% solution of PSI in groups containing 5 mice each, the number of hairs per 0.8 mm^2 was 60 in the treated mice versus about 10 in the control group. The percentage of follicle area in a region of about 0.8 mm^2 was about 30% as an average in the treated group as compared to 15% as an average in the control group.

[7] = topical 0.5% solution of PSI, 3 times a day for 5 days, groups of 5 mice

CCC[C@@H](C=O)NC(=O)[C@H](CC(C)C)NC(=O)[C@H](CC(C)C)NC(=O)OCc1ccccc1 [MG115, N-carbobenzoyl-Leu-Leu-Nva-CHO] (Cbz-Leu-Leu-[Nva]-aldehyde)
number of hair follicles ([1]; 10 mg/kg): stimulated an increase in the number of hair follicles

C=C(C)[C@]12C[C@@H](C)[C@@]34O[C@](Cc5ccccc5)(O[C@@H]1[C@@H]3C=C(COC(=O)Cc1ccc(O)c(OC)c1)C[C@]1(O)C(=O)C(C)=C[C@@H]41)O2 [resiniferatoxin]
activity in the ABA assay [2]: less active

CC(C)C[C@@H](C=O)NC(=O)[C@H](CC(C)C)NC(=O)[C@H](CC(C)C)NC(=O)OCc1ccccc1 [MG132, N-carbobenzoyl-Leu-Leu-Leu-CHO] (Cbz-Leu-Leu-Leu-aldehyde)
number of hair follicles ([1]; 10 mg/kg): stimulated an increase in the number of hair follicles

CC(=O)CCCCn1c(=O)c2c(ncn2C)n(C)c1=O [pentoxyfilline]
activity in the in vitro calvarial assay [3]: active

CC(=O)N[C@@H](CSC(=O)[C@]1([C@@H](O)C(C)C)NC(=O)[C@H](C)[C@@H]1O)C(=O)O [lactacysin, lactacystin]
number of hair follicles ([1]; dose not given): stimulated an increase in the number of hair follicles

CC[C@H](C)[C@H](NC(=O)OCc1ccccc1)C(=O)N[C@@H](CCC(=O)OC(C)(C)C)C(=O)N[C@@H](C)C(=O)N[C@H](C=O)CC(C)C [PSI, N-carbobenzoyl-Ile-Glu-(OtBu)-Ala-Leu-CHO] (Cbz-IE(OtBu)AL-aldehyde)
number of hair follicles (histology of the calvaria) versus control mice ([1]; 5mg/kg/day injected three times a day for 5 days over the calvaria, sacrificed sixteen days later): strikingly large increase in the number of hair follicles | hair growth rate versus control group ([4]; by day 18): hair growth rate greater than that of the mice in the control group | number of hair follicles (dermal punch biopsy histology) versus control mice ([4]; day 7): large increase in the number of hair follicles | effect on quiescent hair follicles (histology) ([4]; day 21): stimulated to differentiate into mature hair follicles and to migrate to the lower region of the dermis | mature hair follicles in dermis of scalp and dorsal region (histology) ([4]; day 21): mature hair follicles in numbers much greater than in controls had migrated to the lower region of the dermis | efficacy on hair growth (additional experiments) ([5]; 0.1% applied topically 3 times a day for 5 days): also effective | gross observation of hair growth ([5]; mice receiving an effective topical dose): an enhanced rate of hair growth, a thickening of hair diameter, increase in sheath diameter, and differentiation of quiescent hair follicles into more mature forms | minimal effective dose (topical concentration) ([5]; topical, applied 1 time a day for 4 days, 100 μl in 50% propylene glycol, 30% ethanol, 20% water): 0.5% | hair growth relative to vehicle controls ([6]; topical 0.1% PSI in 50% propylene glycol, 30% ethanol, 20% water, 3 times a day for 5 days, day 16): stimulation of hair growth relative to the controls | number of hairs per 0.8 mm^2 [6, 7]: 60 per 0.8 mm^2 | percentage of follicle area in a region of about 0.8 mm^2 (average) [6, 7]: about 30% | thickness of hair and hair shaft ([6]; topical PSI): able to thicken both the hair and the hair shaft | hair count ([6]; topical PSI, follicle area greater than 0.01 mm^2): increases hair count
